Data set [1] deals with rat oligodendrocyte progenitor cells. As to the kind of experiment: Promotive activity of rat oligodendrocyte progenitor cell differentiation-1 (MBP gene expression, mRNA). In kind it is cell-based. The conditions noted are these: 96 h, read-out: promotive activity at T3 base (MBP gene expression; DMSO 0%, T3 100%). On the procedure: Regarding vitamin D derivatives, which was confirmed to act on the vitamin D receptor (VDR) in Example 352, the promotive activity of oligodendrocyte progenitor cell (OPC) differentiation was evaluated by MBP gene expression (mRNA).
A forebrain obtained from SD rat (Charles River Japan, 1 day old) was crushed with 70 μm Cell Strainer (Falcon #352350), and a cell suspension was prepared by collecting the cells in oligodendrocyte progenitor cell separation medium (20% FBS/2 mM Glutamax (Gibco #35050-061)/i mM sodium pyruvate (Gibco #11360-070)/1% penicillin-streptomycin (Invitrogen #15140-122)/DMEM (Gibco #11960-044)). The cell suspension was seeded in a poly-D-lysine coated T75 flask (Thermo Fisher Scientific #132704) and cultured for about 2 weeks. After culturing, the flask was shaken using a rotary shaker ([…] #WB-101SRC) for about 1 hour (37° C., 100 rpm), and the supernatant was discarded to remove microglia. Subsequently, oligodendrocyte progenitor cell separation medium was added to the flask, and the mixture was similarly shaken for about 22 hours (37° C., 200 rpm), and the supernatant was collected to prepare oligodendrocyte progenitor cells. […]

Data set [2] is described as follows: Evaluation of calcium increasing action in normal mice. Particulars: 2 weeks; for Serum calcium conc.: C57BL/6J mice, Vehicle 8.9.
Description: After acclimatizing C57BL/6J mice (7 weeks old, male) for 1 week, the mice were divided into groups of 5 mice based on the body weight, and administration of the compound or vehicle was started. The administration solution used was a compound (in ethanol) or ethanol diluted 100-fold with 0.1% Trion X-100 (SIGMA #X100-100 ML)/saline, and the repeated oral administration at once a day was performed. After administration of 2 weeks, euthanasia was performed by collecting all blood under general anesthesia.
Data set [3] is described as follows: Evaluation of brain penetration in mice. In kind it is in vivo, mouse. Particulars: C57BL/6J mice; for Concentration in brain (mean ± SD) at brain Cmax: Test 2: 0.2 mg/kg single oral dose, n=3. How it is done:
The administration solution was administered orally to C57BL/6J mice (8 weeks old, male, n=3) at a single dose (1 mg/kg). Mice were euthanized at 6 points of 0.25, 0.5, 1, 2, 4, and 8 hours after administration, and plasma and brain sampling were performed. After preparing a homogenate from the collected brain using Tissue Lyser II (QIAGEN #85300), acetonitrile was added to the homogenate and the homogenate was centrifuged (12000 rpm, 5 minutes) to extract the administered test compound contained in the brain. Similarly, the plasma was subjected to addition of acetonitrile and centrifugal separation to extract the administered test compound contained in the plasma. Each extracted sample was subjected to measurement of the concentration of administered test compound using LC/MS/MS (SHIMADZU UFLC/MS/MS (8050)).
The administration solution was administered orally to C57BL/6J mice (8 weeks old, male, n=3) at a single dose (0.2 mg/kg). Mice were euthanized at 6 points of 0.25, 0.5, 1, 2, 4, and 8 hours after administration, and plasma and brain sampling were performed. After preparing a homogenate from the collected brain using Tissue Lyser II (QIAGEN #85300), acetonitrile was added to the homogenate and the homogenate was centrifuged (12000 rpm, 5 minutes) to extract the administered compound contained in the brain. Similarly, the plasma was subjected to addition of acetonitrile and centrifugal separation to extract the administered test compound contained in the plasma. Each extracted sample was subjected to measurement of the concentration of administered test compound using LC/MS/MS (SHIMADZU UFLC/MS/MS (8050)).

Data set [4] has as its system mouse experimental autoimmune encephalomyelitis model. As to the kind of experiment: Combination therapy with the vitamin D derivative and an immunosuppressant (fingolimod) in mouse experimental autoimmune encephalomyelitis model. Particulars: for clinical score on the day after final administration (Day 30): oral once a day, two weeks. Type of data set: in vivo. On the procedure: Using a mouse experimental autoimmune encephalomyelitis model, we evaluated the efficacy of the vitamin D derivative of the present invention in combination with fingolimod (an immunosuppressant) approved as a therapeutic drug for multiple sclerosis.
A mouse experimental autoimmune encephalomyelitis model was generated using the Hooke Kit MOG35-55/CFA Emulsion PTX (Cosmo Bio #EK-2110). C57BL/6J mice (11 weeks old, female) were anesthetized with 2.5% isoflurane inhalation and administered 0.1 mL of MOG35-55-CFA subcutaneously to the back and base of the tail, and then two hours later, administered 0.1 mL of pertussis toxin (PTX) intraperitoneally for the initial immunization. One day after the first immunization, 0.1 mL of PTX was administered intraperitoneally again. After the first immunization, clinical scores were measured once a day based on the following criteria. • 0 No abnormality • 0.5 Decrease in tension at the tip of the tail • 1.0 Limp tail • 1.5 Limp tail, and weakness of one hind limb • 2.0 Limp tail, and weakness of both hind limbs with abnormal gait • 2.5 Limp tail, and partial paralysis of one hind limb or abnormal righting reflex • 3.0 Limp tail, and partial paralysis of both hind limbs • 3.5 Limp tail, and paralysis of one hind limb • 4.0 Limp tail, and paralyses of both hind limbs • 4.5 Limp tail, paralyses of both hind legs, and weakness of one forelimb • 5.0 Limp tail, paralyses of both hind limbs, and weakness of both forelimbs (moribund)
Sixteen days after the first immunization, the disease-induced groups were divided into six groups of eight mice each based on the clinical scores, and administration of the compound (D023 6 g/kg) or vehicle was started. […] Two weeks after administration, the mice were euthanized and their spinal cords and whole blood were collected. The intact group indicates a non-treated group.

The mark [5] stands for this setting: compound D023 + fingolimod 0.1 mg/kg (Combination L) vs single group of fingolimod 0.1 mg/kg.
The mark [6] stands for this setting: compound D023 + fingolimod 1.0 mg/kg (Combination H) vs single group of fingolimod 1.0 mg/kg.

The source of these data is patent US20250195488A1, “MEDICINE CONTAINING VITAMIN D DERIVATIVE OR PHARMACEUTICALLY ACCEPTABLE SALT OR SOLVATE THEREOF, USED IN COMBINATION WITH IMMUNOMODULATORY SUBSTANCE” (TEEJIN PHARMA LIMITED, priority 2022, published 2025).

As to `COC1(C)CCCN(C[C@@H](C)[C@H]2CC[C@H]3/C(=C/C=C4C[C@@H](O)C[C@H](O)C4)CCC[C@]23C)C1` (stereo partly drawn) [Compound C045b, (1R,3R)-5-(2-((1R,3aS,7aR,E)-1-((2S)-1-(3-methoxy-3-methylpiperidine-1-yl)propan-2-yl)-7a-methyloctahydro-4H-inden-4-ylidene)ethylidene)cyclohexane-1,3-diol], the activation at 1 µM in data set [1] was at least 20%.

As to `C[C@H](CN1CCOC[C@H]1C)[C@H]1CC[C@H]2/C(=C/C=C3C[C@@H](O)C[C@H](O)C3)CCC[C@]12C` [Compound G005, (1R,3R)-5-(2-((1R,3aS,7aR,E)-7a-methyl-1-((S)-1-((R)-3-methylmorpholino)propan-2-yl)octahydro-4H-inden-4-ylidene)ethylidene)cyclohexane-1,3-diol], the “Calcium conc. Fluctuation range” value in data set [2] (20 μg/kg oral once a day) amounted to 0.2 mg/dL; in data set [2] (60 μg/kg oral once a day) it was 0.2 mg/dL; in data set [2] (200 μg/kg oral once a day), 0.1 mg/dL. Further, the figures for the Serum calcium conc. in data set [2] (20 μg/kg oral once a day), in data set [2] (60 μg/kg oral once a day) and in data set [2] (200 μg/kg oral once a day) were 9.1 mg/dL, 9.1 mg/dL and 9.0 mg/dL, respectively. In addition, in data set [3], the “Concentration in brain (mean ± SD) at brain Cmax” value is recorded as 140.8 ± 17.6 pmol/g.

Consider `C[C@H](CN1CCOCC1(C)C)[C@H]1CC[C@H]2/C(=C/C=C3C[C@@H](O)C[C@H](O)C3)CCC[C@]12C` [Compound G006, (1R,3R)-5-(2-((1R,3aS,7aR,E)-1-((S)-1-(3,3-dimethylmorpholino)propan-2-yl)-7a-methyloctahydro-4H-inden-4-ylidene)ethylidene)cyclohexane-1,3-diol], for which the figures for the “Calcium conc. Fluctuation range” value in data set [2] (20 μg/kg oral once a day), in data set [2] (60 μg/kg oral once a day) and in data set [2] (200 μg/kg oral once a day) were 0 mg/dL, 0 mg/dL and -0.3 mg/dL, respectively. For the same compound, the values for the Serum calcium conc. in data set [2] (20 μg/kg oral once a day), in data set [2] (60 μg/kg oral once a day) and in data set [2] (200 μg/kg oral once a day) were 8.9 mg/dL, 8.9 mg/dL and 8.6 mg/dL, respectively. In data set [3], the “Concentration in brain (mean ± SD) at brain Cmax” value stood at 137.8 ± 11.5 pmol/g.

With `C[C@H](CN1CCOC2(CC2)C1)[C@H]1CC[C@H]2/C(=C/C=C3C[C@@H](O)C[C@H](O)C3)CCC[C@]12C` [Compound D019, (1R,3R)-5-(2-((1R,3aS,7aR,E)-1-((S)-1-(4-oxa-7-azaspiro[2.5]octan-7-yl)propan-2-yl)-7a-methyloctahydro-4H-inden-4-ylidene)ethylidene)cyclohexane-1,3-diol], in data set [3] (Test 1: 1 mg/kg single oral dose), the “Concentration ratio in brain/in blood at brain Cmax” value came out at 2.89.

For `C[C@H](CCN1CCOCC1)[C@H]1CC[C@H]2/C(=C/C=C3C[C@@H](O)C[C@H](O)C3)CCC[C@]12C` [Compound D023, (1R,3R)-5-(2-((1R,3aS,7aR,E)-7a-methyl-1-((R)-4-morpholinobutan-2-yl)octahydro-4H-inden-4-ylidene)ethylidene)cyclohexane-1,3-diol], the “blood lymphocyte count on the day after final administration (Day 30)” value in data set [4] (setting [5]) is recorded as “no significant difference”; in data set [4] (setting [6]), “neither was there a significant difference”. For the same compound, the “clinical score on the day after final administration (Day 30)” value in data set [4] (setting [5]) and in data set [4] (setting [6]) was “significantly lower clinical score” each time.

Turning to `C[C@H](CN1CCOC[C@@H]1C)[C@H]1CC[C@H]2/C(=C/C=C3C[C@@H](O)C[C@H](O)C3)CCC[C@]12C` [Compound G004, (1R,3R)-5-(2-((1R,3aS,7aR,E)-7a-methyl-1-((S)-1-((S)-3-methylmorpholino)propan-2-yl)octahydro-4H-inden-4-ylidene)ethylidene)cyclohexane-1,3-diol], the “Calcium conc. Fluctuation range” value was 0 mg/dL in data set [2] (20 μg/kg oral once a day), -0.1 mg/dL in data set [2] (60 μg/kg oral once a day) and 0.1 mg/dL in data set [2] (200 μg/kg oral once a day). Besides, the Serum calcium conc. in data set [2] (20 μg/kg oral once a day) came to 8.9 mg/dL; in data set [2] (60 μg/kg oral once a day), 8.8 mg/dL; in data set [2] (200 μg/kg oral once a day) it was 9.0 mg/dL. For the same compound, the “Concentration in brain (mean ± SD) at brain Cmax” value in data set [3] is listed as 171.2 ± 37.4 pmol/g.
